{
  "source": "patent US6927234B2",
  "about": "“Xanthone derivatives, method of production thereof, and pharmaceutical composition containing the same” (Kuboyama Bio Ken Inc., priority 2003, dated 2005)",
  "key": {"Sarcoma 180 [1]": {"tested_on": "Sarcoma 180", "test": "Sarcoma 180 assay, oral gavage for five days, sacrifice on Day 10 (Example 4)", "assay_type": "in vivo, Swiss-Webster mice", "conditions": "for % Tumor Inhibition: sacrificed Day 10, female mice", "description": "(§1) The compound obtained in Example 1 was dissolved in ethyl alcohol at 10 mg/ml. Dilutions of this stock solution were made to 100, 10 and 1 mcg per kilo body weight of the mice. The Sarcoma 180 assay was carried out as described below.\nThe tumor stock was a Sarcoma 180 which was started in the laboratory from an American Type Culture Collection. This stock culture has been passed at weekly intervals as an ascites in non-treated Swiss-Webster mice.\n(§2) The current studies were all carried out with Swiss-Webster mice obtained from Animal Technologics Ltd., Kent, Wash. To prepare the inoculum, the ascites fluid from a mouse with a 7-10 day ascites is aspirated using a sterile technique. Once a cell count is established, the tumor cells are diluted with normal saline or phosphate buffered saline to obtain a final concentration of 1 to 2×10^6 cells per mm^3. This is the tumor suspension that is then injected into the mice. The final dilution is plated on trypticase soy agar to determine if it is free of contamination.\n(§3) One tenth (0.1 ml) of the above suspension is inoculated into the left hind leg muscle (hamstring muscle mass) of each mouse. The inoculated mice are placed into one large cage and then randomly segregated into groups of five mice. The mice are housed in shoe box cages on wood shavings with free access to water and laboratory chow. The mice are weighed on the day of inoculation, on day 7, day 10, and at time of sacrifice.\nTreatment of the mice was initiated the day after transplant and then continued for five days.\n(§4) At the end of the observation period, 10 days, the mice are sacrificed either by cervical dislocation or ether anesthesia. The skin over the left hind leg is removed to expose the tumor and the leg and tumor are removed at the hip joint. Any residual skin is removed and the legs with tumors are weighed individually. Ten normal legs (right legs) are prepared in a similar manner and weighed. The mean value of the normal leg is subtracted from the weight of the leg with the tumor to give an estimate of the actual tumor weight."}, "Sarcoma 180 [2]": {"tested_on": "Sarcoma 180", "test": "Sarcoma 180 assay, oral dosing, 12-day treatment period (Example 5)", "assay_type": "in vivo, Swiss-Webster mice", "conditions": "12 days treatment; for % Tumor Inhibition / Body wt. G (avg.): oral gavage", "description": "as §1\nThe tumor stock was a Sarcoma 180, which was started in the laboratory from an American Type Culture Collection. This stock culture has been passed at weekly intervals as an ascites in non-treated Swiss-Webster mice.\nas §2, with “7-12” for “7-10”, “sterile technique. The tumor cells are checked for viability using the trypan-blue staining” for “sterile”\nas §3, with “12,” for “10,”\nTreatment of the mice was initiated the day after transplant. The treatment period was 12 days.\nas §4, with “period,” for “period, 10 days,”, “sacrificed” for “sacrificed either”, “by” for “by cervical dislocation or”, “weight. [formula]” for “weight.”"}, "[3]": {"tested_on": "adjuvant-induced arthritis", "assay_type": "in vivo, Sprague-Dawley rats", "conditions": "gavage once per day for 7 days; for Rat paw wt.: five rats per group", "description": "Adjuvant-induced arthritis responds to both steroids and non-steroids. The degree of inflammation is assessed by measuring differences in foot weight and/or the foot volume.\nRats weighing between 150-200 g were purchased from ATL, in Kent Wash. They were male Sprague-Dawley rats. The animals were kept individually in stainless steel cages with free access to water and feed (Harlan Teklan Rodent Diet). The light cycle was maintained at 12 hours light and 12 hours dark. The temperature was maintained at 22° C.±3° C. with a relative humidity of 40 to 70%.\n[…] The test compound and hydrocortisone were given by gavage.\nThe test materials were delivered orally (by gavage) once per day for 7 days.\nMale Sprague-Dawley rats (150-200 g) were sensitized by injecting Fruend's complete adjuvant (0.5% suspension of killed mycobacterium tuberculosis (H37RA, Difco, in mineral oil)). A 0.1 ml aliquot was administered intradermally at a plantar site on the right hind leg of each rat.\nThe test materials were given orally (by gavage) to each of 5 rats per treatment group once per day for 7 days. Administration of the test materials was initiated on the day of sensitization.\nThe left hind paw was measured just before sensitization an again on Day 7. The plantar edema inhibitory rate and the body weight gain were determined by comparison with the non-sensitized rat groups.\nThe paw weights for each rat group were averaged. Anti-inflammatory activity was determined by comparing paw weights calculated as follows: [formula]"}, "Sarcoma 180 [4]": {"tested_on": "Sarcoma 180", "test": "Sarcoma 180 assay, single intraperitoneal dose (Example 7)", "assay_type": "in vivo, Swiss-Webster mice", "text": "[table] [table] The tumor stock was a Sarcoma 180 which was started in the laboratory from an American Type Culture Collection. This stock culture has been passed at weekly intervals as an ascites in non-treated Swiss-Webster mice. The current studies were all carried out with Swiss-Webster mice obtained from Animal Technologics Ltd., Kent, Wash. To prepare the inoculum, the ascites fluid from a mouse with a 7-10 day ascites is aspirated using a sterile technique. […] This was the tumor suspension that was then injected into the mice. The final dilution was plated on trypticase soy agar to determine if it was free of contamination. One tenth (0.1 ml) of the above suspension was inoculated into the left hind leg muscle (hamstring muscle mass) of each mouse. The inoculated mice were placed into one large cage and then randomly segregated into groups of five mice. The mice were housed in shoe box cages on wood shavings with free access to water and laboratory chow. The mice were weighed on the day of inoculation, on day 7, day 10, and at time of sacrifice. Treatment of the mice was initiated the day after transplant. At the end of the observation period, the mice were sacrificed by ether anesthesia. The skin over the left hind leg was removed to expose the tumor and the leg and tumor were removed at the hip joint. Any residual skin was removed and the legs with tumors were weighed individually. Ten normal legs (right legs) were prepared in a similar manner and weighed. The mean value of the normal leg was subtracted from the weight of the leg with the tumor to give an estimate of the actual tumor weight: […]"}, "[5]": {"conditions": "1 mg/kg, single dose intraperitoneally"}, "[6]": {"conditions": "10 mg/kg, single dose intraperitoneally"}, "[7]": {"conditions": "100 mg/kg, single dose intraperitoneally"}},
  "note": "Read-outs that look alike come from different tables or passages of the source. Marks after values point to notes of the source that are not given here.",
  "data": [
    {"smiles": "O=C(O)Cc1c2cc[nH]c2cc2c(=O)c3ccccc3oc12", "note": "[Compound of Example 1]", "values": [
      {"measurement": "% Tumor Inhibition", "setting": "Sarcoma 180 [1]; 1 mcg/kg", "value": 43, "unit": "%"},
      {"measurement": "% Tumor Inhibition", "setting": "Sarcoma 180 [1]; 10 mcg/kg", "value": 100, "unit": "%"},
      {"measurement": "% Tumor Inhibition", "setting": "Sarcoma 180 [1]; 100 mcg/kg", "value": 100, "unit": "%"},
      {"measurement": "toxicity as indicated by the body weights", "setting": "Sarcoma 180 [1]; any dose (1, 10, 100 mcg/kg)", "value": "No toxicity"},
      {"measurement": "toxicity from final body weights", "setting": "Sarcoma 180 [2]; 1 and 10 mcg/kg, oral", "value": "not toxic"},
      {"measurement": "visible tumor", "setting": "Sarcoma 180 [2]; 1 and 10 mcg/kg, oral", "value": "no visible tumor"},
      {"measurement": "% Tumor Inhibition", "setting": "Sarcoma 180 [2]; 1 mcg/kg", "value": "98.5* %"},
      {"measurement": "Body wt. G (avg.)", "setting": "Sarcoma 180 [2]; 1 mcg/kg", "value": 29.2, "unit": "G"},
      {"measurement": "% Tumor Inhibition", "setting": "Sarcoma 180 [2]; 10 mcg/kg", "value": "100* %"},
      {"measurement": "Body wt. G (avg.)", "setting": "Sarcoma 180 [2]; 10 mcg/kg", "value": 28.7, "unit": "G"},
      {"measurement": "% Inhibition (rat paw inflammation)", "setting": "[3]; 1 mcg/kg body wt.", "value": 95.2, "unit": "%"},
      {"measurement": "Rat paw wt.", "setting": "[3]; 1 mcg/kg body wt.", "value": 0.324, "unit": "g"}
    ]},
    {"smiles": "O=c1c2ccccc2oc2ccccc12", "note": "[Compound of Example 3, Xanthone]", "values": [
      {"measurement": "% Inhibition", "setting": "Sarcoma 180 [4]; [5]", "value": 80, "unit": "%"},
      {"measurement": "Net Tumor wt.", "setting": "Sarcoma 180 [4]; [5]", "value": 0.3, "unit": "g"},
      {"measurement": "% Inhibition", "setting": "Sarcoma 180 [4]; [6]", "value": 100, "unit": "%"},
      {"measurement": "Net Tumor wt.", "setting": "Sarcoma 180 [4]; [6]", "value": 0, "unit": "g"},
      {"measurement": "% Inhibition", "setting": "Sarcoma 180 [4]; [7]", "value": 100, "unit": "%"},
      {"measurement": "Net Tumor wt.", "setting": "Sarcoma 180 [4]; [7]", "value": 0, "unit": "g"},
      {"measurement": "evidence of tumor", "setting": "Sarcoma 180 [4]; 10 and 100 mg/kg body weight, single dose intraperitoneally", "value": "no evidence of tumor"},
      {"measurement": "Body weight", "setting": "Sarcoma 180 [4]; Day 1, 1 mg/kg single ip", "value": 24.2, "unit": "g"},
      {"measurement": "Body weight", "setting": "Sarcoma 180 [4]; Day 1, 10 mg/kg single ip", "value": 23.8, "unit": "g"},
      {"measurement": "Body weight", "setting": "Sarcoma 180 [4]; Day 1, 100 mg/kg single ip", "value": 23.4, "unit": "g"},
      {"measurement": "Body weight", "setting": "Sarcoma 180 [4]; Day 7, 1 mg/kg single ip", "value": 26, "unit": "g"},
      {"measurement": "Body weight", "setting": "Sarcoma 180 [4]; Day 7, 10 mg/kg single ip", "value": 26.1, "unit": "g"},
      {"measurement": "Body weight", "setting": "Sarcoma 180 [4]; Day 7, 100 mg/kg single ip", "value": 26.2, "unit": "g"},
      {"measurement": "Body weight", "setting": "Sarcoma 180 [4]; Day 10, 1 mg/kg single ip", "value": 26.2, "unit": "g"},
      {"measurement": "Body weight", "setting": "Sarcoma 180 [4]; Day 10, 10 mg/kg single ip", "value": 26.4, "unit": "g"},
      {"measurement": "Body weight", "setting": "Sarcoma 180 [4]; Day 10, 100 mg/kg single ip", "value": 26.5, "unit": "g"}
    ]},
    {"smiles": "C[C@]12CCC(=O)C=C1CC[C@@H]1[C@@H]2[C@@H](O)C[C@@]2(C)[C@H]1CC[C@]2(O)C(=O)CO", "note": "[hydrocortisone]", "values": [
      {"measurement": "% Inhibition (rat paw inflammation)", "setting": "[3]; 10 mg/kg body wt.", "value": 42, "unit": "%"},
      {"measurement": "Rat paw wt.", "setting": "[3]; 10 mg/kg body wt.", "value": 0.98, "unit": "g"}
    ]}
  ]
}
